Laboratory results as given in US20240182457A1, “OXADIAZOLE-SUBSTITUTED SPIROCYCLIC COMPOUND AND APPLICATION THEREOF” (HELIOEAST PHARMACEUTICAL CO., LTD., priority 2021, published 2024).

Biological target: T1, S1PR1 (Homo sapiens, UniProt P21453)
T1 construct: expressed in transfected cells
Test: In vitro agonist activity on S1PR1 (PathHunter cell line, chemiluminescence)
Type: cell-based
Protocol: Test example 1: Evaluating the in vitro agonist activity of the compound of the present disclosure on S1PR1
Experimental purpose: To assess the agonist activity of the compound on S1PR1
I. Cell Treatment • 1. The PathHunter cell line was thawed according to standard procedures. • 2. The cells were seeded in a 384-well plate with a volume of 20 μL, and incubated at 37° C. for an appropriate duration.
II. Agonist • 1. For the agonist evaluation, the cells were co-cultured with the test samples to induce a reaction. • 2. The test stock solution was diluted 5-fold using the buffer. • 3. 5 μL of the 5-fold diluted solution was added to the cells, and incubated at 37° C. for 90 to 180 minutes. The vehicle concentration was maintained at 1%.
III. Signal Detection • 1. Either 12.5 μL or 15 μL of the PathHunter detection reagent (at a 50% v/v ratio) was added each time, followed by a 1-hour incubation at room temperature to allow for detection signal generation. • 2. Chemiluminescence signal detection was conducted using a PerkinElmer Envision™ microplate reader.
IV. Data Analysis • 1. The activity of the compound was analyzed using the CBIS suite for data analysis (ChemInnovation, CA). • 2. Formula for calculation:
% Activity=100%× (Average sample RLU—Average vehicle RLU)/(Average maximum control ligand RLU—Average vehicle RLU)

T1 sequence (P21453 whole entry): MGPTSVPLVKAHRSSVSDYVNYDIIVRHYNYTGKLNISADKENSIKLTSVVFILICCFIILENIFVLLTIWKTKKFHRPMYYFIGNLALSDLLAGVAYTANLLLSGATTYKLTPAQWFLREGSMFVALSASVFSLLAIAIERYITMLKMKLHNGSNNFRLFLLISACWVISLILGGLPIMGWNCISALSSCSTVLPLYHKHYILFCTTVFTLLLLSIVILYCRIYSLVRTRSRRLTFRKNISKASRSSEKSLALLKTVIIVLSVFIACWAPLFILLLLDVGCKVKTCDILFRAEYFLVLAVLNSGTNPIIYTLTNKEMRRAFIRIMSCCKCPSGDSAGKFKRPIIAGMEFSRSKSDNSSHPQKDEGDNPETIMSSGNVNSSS

Structure (SMILES): CC(C)Oc1cc(-c2nc(-c3cccc4c3CCC43CCN(C(C)(C)CO)C3)no2)ccc1C#N (centres unmarked) [Compound 1]
- Emax (% Activity relative to maximum control ligand): 110%
- EC50 (incubated at 37° C. for 90 to 180 minutes): 0.657 nM
